In general, inhibition refers to the share of the control response that was lost under treatment.

Drawing on patent US11091421B2, “Benzene fused heterocyclic derivative and pharmaceutical composition comprising the same” (TAIWANJ PHARMACEUTICALS CO., LTD., priority 2017, dated 2021), this text covers inhibition for 26 molecules.

The target in this assay is autotaxin (Homo sapiens, UniProt Q13822). In words: Autotaxin inhibitor screening assay (phosphodiesterase activity, p-nitrophenol cleaved from bis-(p-nitrophenyl) phosphate, absorbance 410 nm). The assay is classed as biochemical. Particulars: pH 9, compound at 30 μM; BNPP 3 mM, pH 9.0, 37° C., 30 minutes; read-out: Inhibition. The procedure: As described above, the compounds in the present disclosure have the effect of inhibiting the activity of autotaxin, and can be used as autotaxin inhibitors. One method for inhibiting activity of autotaxin in environment is administering to the environment an effective amount of the compound of Formula (I). Please refer to the following experiment, the phosphodiesterase activity of autotaxin was measured using the p-nitrophenol that is a yellow product cleaved by autotaxin from the bis-(p-nitrophenyl) phosphate. Compound samples (10 μl) were incubated with autotaxin (10 μl) in a final volume of 200 μl assay buffer (5 mM CaCl2, 50 mM Tris-HCl, pH 9.0) containing bis-(p-nitrophenyl) phosphate (BNPP) at a final concentration of 3 mM at 37° C. After 30 minutes, absorbance at 410 nm of the reacted solution was measured. The percent inhibition for each test article (TA) (compound) was determined using the following equation. % Inhibition=(O.D.vehicle−O.D.TA)/O.D.vehicle×100
Take `O=C(O)c1ccc(COc2ccc3c(c2)C/C(=C\c2ccc(Cl)c(F)c2)C3=O)cc1` [Compound 13]: the inhibition at 30 µM was above 80%.

On to `CS(=O)(=O)c1ccc(COc2ccc3c(c2)C/C(=C\c2ccc(F)c(Cl)c2)C3=O)cc1` [Compound 126], for which the inhibition at 30 µM is below 50%. For the molecule `O=C(O)c1ccc(COc2ccc3c(c2)C/C(=C\c2ccc(OCc4cc(F)c(F)cc4F)cc2)C3=O)cc1` [Compound 14], the inhibition at 30 µM is above 80%. For `O=C(O)c1ccc(/C=C2\Cc3cccc(OCc4cc(F)c(F)cc4F)c3C2=O)cc1` [Compound 11], the inhibition at 30 µM was 50 to 80%. For `O=C(NCCO)c1ccc(CC2CCc3cc(OCc4cc(F)c(F)cc4F)ccc3C2=O)cc1` (centres unmarked) [Compound 45], the inhibition at 30 µM fell in the range of 50 to 80%. Regarding `O=C(NO)c1ccc(COc2ccc3c(c2)C/C(=C\c2cc(Cl)cc(Cl)c2)C3=O)cc1` [Compound 128], the inhibition at 30 µM was in the range of 50 to 80%. Consider `O=C(O)c1ccc(COc2ccc3c(c2)C/C(=C\CCc2cc(Cl)cc(Cl)c2)C3=O)cc1` [Compound 17], for which the inhibition at 30 µM is above 80%. In the case of `O=C(O)Cc1ccc(COc2ccc3c(c2)C/C(=C\c2cc(Cl)cc(Cl)c2)C3=O)cc1` [Compound 130] it was above 80%; in that of `O=C(Cc1ccc(F)c(F)c1)Nc1ccc(CC2CCc3cc(O)ccc3C2=O)cc1` (centres unmarked) [Compound 69], below 50%.

As for `O=C(OCc1cc(F)c(F)cc1F)c1ccc(CC2CCc3cc(O)ccc3C2=O)cc1` (centres unmarked) [Compound 57], the inhibition at 30 µM was above 80%.

Take `O=C(O)c1ccc(/C=C2\CCc3cc(OCCc4ccc(F)cc4)ccc3C2=O)cc1` [Compound 50]: the inhibition at 30 µM lay within 50 to 80%. On to `O=C(O)c1ccc(COc2ccc3c(c2)CC(Cc2cc(Cl)cc(Cl)c2)C3=O)cc1` (centres unmarked) [Compound 134], for which the inhibition at 30 µM was above 80%. The value for `O=C(NCc1cc(F)ccc1F)c1ccc(CC2CCc3cc(O)ccc3C2=O)cc1` (centres unmarked) [Compound 56] was below 50%; that for `O=C(NCCc1ccc(Cl)c(Cl)c1)c1ccc(CC2CCc3cc(O)ccc3C2=O)cc1` (centres unmarked) [Compound 60] was 50 to 80%; that for `CNS(=O)(=O)c1ccc(COc2ccc3c(c2)C/C(=C\c2cc(Cl)cc(Cl)c2)C3=O)cc1` [Compound 123] was below 50%.

With `O=C(O)c1cccc(/C=C2\Cc3ccc(OCc4ccc(F)c(F)c4)cc3C2=O)c1` [Compound 9], the inhibition at 30 µM was below 50%. On to `O=C(Nc1ccc(CC2CCc3cc(O)ccc3C2=O)cc1)OCc1cc(Cl)cc(Cl)c1` (centres unmarked) [Compound 70], for which the inhibition at 30 µM is above 80%. With `O=C(Nc1ccc2c(c1)C/C(=C\c1ccc(C(=O)O)cc1)C2=O)OCc1ccccc1` [Compound 28], the inhibition at 30 µM is below 50%. On to `COC(=O)c1ccc(COc2ccc3c(c2)O/C(=C\c2ccc(F)c(F)c2)C3=O)cc1` [Compound 89], for which the inhibition at 30 µM is 50 to 80%. The value for `CS(=O)(=O)NC(=O)c1ccc(COc2ccc3c(c2)C/C(=C\c2cc(Cl)cc(Cl)c2)C3=O)cc1` [Compound 125] was above 80%. With `CS(=O)(=O)c1ccc(COc2ccc3c(c2)C/C(=C\c2cc(Cl)cc(Cl)c2)C3=O)cc1` [Compound 122], the inhibition at 30 µM is below 50%. Regarding `O=C(Nc1ccc(CC2CCc3cc(O)ccc3C2=O)cc1)OCc1cc(F)c(F)cc1F` (centres unmarked) [Compound 71], the inhibition at 30 µM was 50 to 80%. Regarding `O=C(O)c1ccc(COc2ccc3c(c2)C/C(=C\c2ccc(Cl)cc2)C3=O)cc1` [Compound 5], the inhibition at 30 µM is above 80%. As to `O=C(O)c1ccc(COc2ccc3c(c2)C/C(=C\c2cc(Cl)cc(Cl)c2)C3O)cc1` (centres unmarked) [Compound 133], the inhibition at 30 µM lay within 50 to 80%. Take `O=C(OCc1ccc(F)c(F)c1)c1ccc(CC2CCc3cc(OCc4ccc(F)c(F)c4)ccc3C2=O)cc1` (centres unmarked) [Compound 58]: the inhibition at 30 µM is above 80%. As to `O=C(O)c1ccc(/C=C2\Cc3ccc(OCc4ccc(F)c(F)c4)cc3C2=O)cc1` [Compound 8], the inhibition at 30 µM is below 50%.
